Assay results taken from patent US20230148588A1, “METHODS, COMPOSITIONS, AND SYSTEMS FOR ENHANCING EX-VIVO ORGAN PERFUSION” (University Health Network, priority 2020, published 2023).
Entries after “also recorded” stand apart in the source; their conditions may differ. Where a SMILES comes first, the peptide text is derived from it.

How the values were obtained:
[1] = system: human lung epithelial cells (BEAS-2B); assay: Basic cellular function of cells exposed to Steen solution and its modifications (IncuCyte Live Cell Analysis); assay type: cell-based; conditions: for apoptosis / cell migration: GlutaMax added at 4 mM to Steen solution, vs Steen solution
Excerpt: (§1) Methods: Human pulmonary microvascular endothelial cells (HPMEC) and human lung epithelial cells (BEAS-2B) were used to determine the effects of Steen solution components on basic cellular function. Cell confluence, apoptosis and migration were visualized and quantified by IncuCyte® Live Cell Analysis System in real-time. A simulated EVLP cell culture model was established by replacing regular culture medium with cold lung preservation solution and followed by “perfusion” with normothermic Steen solution or its modifications. Cell apoptosis was quantified. Porcine lung EVLP was performed using Steen solution with added nutrients.
(§2) The effects of glutamine in Steen solution on mitochondrial respiration and glycolytic function were examined using a Seahorse XFe analyzer.

[2] = system: human pulmonary microvascular endothelial cells (HPMEC); assay: as above; assay type: cell-based; conditions: for apoptosis / cell migration: GlutaMax added at 4 mM to Steen solution, vs Steen solution
Excerpt: as §1, §2

BEAS-2B = assay: Simulated EVLP cell culture model (cold Perfadex preservation, then perfusion with Steen solution with and without GlutaMax); assay type: cell-based, human; conditions: for total GSH production: fluorometric assay kit; for apoptosis: GlutaMax 0.5 mM to 4 mM in Steen solution, after 6 h or 18 h cold preservation, simulated EVLP
Excerpt: (§3) Methods: Human pulmonary microvascular endothelial cells (HPMEC) and human lung epithelial cells (BEAS-2B) were used to determine the effects of Steen solution components on basic cellular function. Cell confluence, apoptosis and migration were visualized and quantified by IncuCyte® Live Cell Analysis System in real-time. A simulated EVLP cell culture model was established by replacing regular culture medium with cold lung preservation solution and followed by “perfusion” with normothermic Steen solution or its modifications. Cell apoptosis was quantified. Porcine lung EVLP was performed using Steen solution with added nutrients. A cell culture model was developed that simulates hypothermic lung preservation and reperfusion and was used to “perfuse” cells with EVLP perfusate, as shown in FIG. 6A. Culture medium of confluent cells was replaced with 4° C. lung preservation solution (Perfadex®) for 6 h or 18 h, and then “perfused” with Steen solution with and without GlutaMax. […] Human lung endothelial and epithelial cells were subjected to simulated EVLP treated with Steen solution with and without GlutaMax. GSH concentration in cell culture was measured with a fluorometric assay kit from BioVision.

HPMEC = assay: as above; assay type: cell-based, human; conditions: for total GSH production: fluorometric assay kit; for apoptosis: GlutaMax 0.5 mM to 4 mM in Steen solution, after 6 h or 18 h cold preservation, simulated EVLP
Excerpt: as §3

IL-8 = IL-8 production in simulated EVLP cell culture model; assay type: cell-based, human; conditions: prolonged CIT (18 h) and simulated EVLP (12 h)
Procedure: A cell culture model was developed that simulates hypothermic lung preservation and reperfusion and was used to “perfuse” cells with EVLP perfusate, as shown in FIG. 6A. Culture medium of confluent cells was replaced with 4° C. lung preservation solution (Perfadex®) for 6 h or 18 h, and then “perfused” with Steen solution with and without GlutaMax.

pig lung = assay: Pig lung EVLP with GlutaMax-modified Steen solution; conditions: for lung function: compared with historical controls
Excerpt: Methods: Human pulmonary microvascular endothelial cells (HPMEC) and human lung epithelial cells (BEAS-2B) were used to determine the effects of Steen solution components on basic cellular function. Cell confluence, apoptosis and migration were visualized and quantified by IncuCyte® Live Cell Analysis System in real-time. A simulated EVLP cell culture model was established by replacing regular culture medium with cold lung preservation solution and followed by “perfusion” with normothermic Steen solution or its modifications. Cell apoptosis was quantified. Porcine lung EVLP was performed using Steen solution with added nutrients. […] During the experiment, EVLP was extended as long as the dynamic lung compliance was greater than 15 ml/cmH2O. […] Pig lungs were preserved at 4° C. followed by EVLP. […] Lung function assessment: Perfusate was sampled regularly. PO2, PCO2, pH, Na^+, K^+, Ca^2+, Cl^−, glucose and lactate were determined via a blood gas analyzer (see FIG. 17; Table 3). Pulmonary function was monitored continuously and assessed every hour, including static and dynamic compliances, peak airway inspiratory pressure, pulmonary artery pressure and pulmonary vascular resistance (PVR). Lung tissue biopsies were collected before, during and at the end of EVLP. Lung wet-to-dry ratio was measured as an indicator of lung edema.

[3] = pH of Steen solution after addition of nutrients; assay type: physicochemical; conditions: nutrient added to Steen solution (GlutaMax at 4 mM; amino acids at clinically recommended concentrations)
Procedure: Amino acids are essential nutrients for cell proliferation. In rat lungs, the lack of amino acids and insulin in perfusate reduced protein synthesis, while vitamin C prolonged the viability and stability of perfused rat lungs by slowing the decline of mitochondrial activity. Therefore, clinically recommended concentrations of amino acids and/or vitamins were added in Steen solution to improve its performance.

[4] = CIT 6 h and EVLP 4 h, listed as GlutaMAX
[5] = pig lung EVLP, first 18 h, compared with historical control
[6] = different concentrations of Albumin (1, 2, 4, 7%) and Dextran 40 (5, 25, 50 g/L) in Steen solution

With `C[C@H](N)C(=O)N[C@@H](CCC(N)=O)C(=O)O` [GlutaMax, L-alanyl-L-glutamine] (H-Ala-Gln-OH) the apoptosis [1] was “reduced apoptosis”, the cell migration [1] was “improved cell migration” and the apoptosis ([1]; listed as L-alanyl-L-glutamine) was “significantly inhibited cell apoptosis”. For the same compound, the cell migration ([1]; listed as L-alanyl-L-glutamine) was “improved cell migration”, the apoptosis [2] was “reduced apoptosis” and the cell migration [2] was “improved cell migration”. For the same compound, the apoptosis ([2]; listed as L-alanyl-L-glutamine) was “significantly inhibited cell apoptosis”, the cell migration ([2]; listed as L-alanyl-L-glutamine) was “improved cell migration” and the “HSP70 production (protein expression in cell lysates)” value (BEAS-2B; CIT 6 h and EVLP 4 h) was “promoted HSP70 production; also recorded: enhanced HSP70 production”. The “total GSH production” value (BEAS-2B; CIT 6 h and EVLP 4 h) was “enhanced total GSH production”, the “total GSH production” value (BEAS-2B; [4]) was “enhanced Total GSH production” and the apoptosis (BEAS-2B) was “reduced apoptosis”. For the same compound, the apoptosis (BEAS-2B; listed as Glutamax) was “reduced apoptosis”, the apoptosis (BEAS-2B; listed as gln) was “significantly reduced apoptosis” and the “HSP70 production (protein expression in cell lysates)” value (HPMEC; CIT 6 h and EVLP 4 h) was “promoted HSP70 production; also recorded: enhanced HSP70 production”. The “total GSH production” value (HPMEC; CIT 6 h and EVLP 4 h) was “enhanced total GSH production”, the “total GSH production” value (HPMEC; [4]) was “enhanced Total GSH production” and the apoptosis (HPMEC) was “reduced apoptosis”. For the same compound, the apoptosis (HPMEC; listed as Glutamax) was “reduced apoptosis”, the apoptosis (HPMEC; listed as gln) was “significantly reduced apoptosis” and the IL-8 production (IL-8) was “inhibited IL-8 production”. The lung function (pig lung; pig lung EVLP) was “improved lung function”, the lung function (pig lung; pig lung EVLP, listed as gln) was “stable lung function” and the “delta PO2” value (pig lung; [5]) was “higher”. For the same compound, the dynamic compliance (pig lung; [5]) was “higher”, the peak airway pressure (pig lung; [5]) was “lower” and the EVLP period (pig lung; pig lung EVLP, gln added to Steen solution) was “significantly extend”. The EVLP duration reached (pig lung; pig lung, EVLP extended as long as dynamic lung compliance greater than 15 ml/cmH2O) was 36 h and the pH [3] was “maintained in the physiological range”.
With Dextran 40 the “cell confluence, apoptosis and migration” value [1, 6] was “no major differences” and the “cell confluence, apoptosis and migration” value [2, 6] was “no major differences”.
